Assay results published in the supplement of paper PMC10307832.

Tests used:
Assay in all cases: relative viability (nuclei count vs DMSO), 5 days (fraction); higher = more cells survive
[1] = compound: C1/C(=C\C2=CC=CS2)/C(=O)/C(=C/C3=CC=CS3)/C1
How it was run: (§1)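 Acceptance criteria were a control CV below 25% and at least one doubling per plate. Lung cancer cell lines in 1536-well plates got five library-drug doses (not always all listed) √10 apart by pinning and were left 5 days with no medium change. Viability divides treated-well nuclei by vehicle-well nuclei and is the median across plates. Nuclei were counted by MetaXpress from 4× Hoechst images.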

TPCA-1 = compound: C1=CC(=CC=C1C2=CC(=C(S2)NC(=O)N)C(=O)N)F [TPCA-1]
How it was run: as §1

Lestaurtinib = compound: C[C@]12O[C@H](C[C@]1(O)CO)n1c3ccccc3c3c4c(c5c6ccccc6n2c5c31)CNC4=O [Lestaurtinib]
How it was run: as §1

TPCA-1 + Dasatinib = compound: C1=CC(=CC=C1C2=CC(=C(S2)NC(=O)N)C(=O)N)F [TPCA-1] + Cc1nc(Nc2ncc(C(=O)Nc3c(C)cccc3Cl)s2)cc(N2CCN(CCO)CC2)n1 [Dasatinib] (partner 0.075 µM)
How it was run: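 For relative viability, nuclei counts in treated wells were divided by those in vehicle wells. Lung cancer cell lines had been pin-tool dosed in 1536-well plates the day after seeding and cultured for 5 days, then fixed and stained in one step (final 0.05% Triton X-100, 1% formaldehyde, 1 ug/ml Hoechst) and imaged at 4×. Doses were one drug alone or a fixed anchor-drug dose plus five library-drug doses (not always all listed) in √10 steps, and values are duplicate-plate medians.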

| Cell Line | relative viability ([1]; 0.2 µM) | relative viability ([1]; 0.6325 µM) | relative viability ([1]; 2 µM) | relative viability ([1]; 6.325 µM) | relative viability ([1]; 20 µM) | relative viability (TPCA-1; 0.04 µM) | relative viability (TPCA-1; 0.1265 µM) | relative viability (TPCA-1; 0.4 µM) | relative viability (TPCA-1; 1.265 µM) | relative viability (TPCA-1; 4 µM) | relative viability (Lestaurtinib; 0.005 µM) | relative viability (Lestaurtinib; 0.01581 µM) | relative viability (Lestaurtinib; 0.05 µM) | relative viability (Lestaurtinib; 0.1581 µM) | relative viability (Lestaurtinib; 0.5 µM) | relative viability (TPCA-1 + Dasatinib; first compound 0.04 µM) | relative viability (TPCA-1 + Dasatinib; first compound 0.1265 µM) | relative viability (TPCA-1 + Dasatinib; first compound 0.4 µM) | relative viability (TPCA-1 + Dasatinib; first compound 1.265 µM) | relative viability (TPCA-1 + Dasatinib; first compound 4 µM) |
| --- | --- | --- | --- | --- | --- | --- | --- | --- | --- | --- | --- | --- | --- | --- | --- | --- | --- | --- | --- | --- |
| HCC-44 | 1.02 | 1 | 0.989 | 0.898 | 0.962 | 1.01 | 0.933 | 0.965 | 0.643 | 0.901 | 0.923 | 1.16 | 0.941 | 1.11 | 0.845 |  |  |  |  |  |
| HCC-78 | 0.972 | 0.927 | 1.25 | 0.823 | 0.908 | 0.972 | 0.834 | 0.892 | 0.788 | 0.391 | 0.823 | 0.943 | 0.547 | 0.577 | 0.44 | 0.485 | 0.452 | 0.402 | 0.413 | 0.297 |
| HCC-366 | 1.02 | 1.05 | 1.1 | 0.827 | 1.04 | 1.03 | 0.995 | 1.01 | 1.01 | 0.152 | 1.06 | 1.01 | 1.02 | 1.01 | 0.829 | 0.729 | 0.55 | 0.664 | 0.539 | 0.233 |
| HCC-827 | 1.05 | 1.04 | 1.05 | 0.956 | 1.04 | 1.12 | 0.988 | 1.05 | 0.961 | 0.813 | 1.01 | 1.07 | 1.03 | 0.892 | 0.664 | 0.299 | 0.199 | 0.391 | 0.293 | 0.155 |
| HOP-62 | 1.1 | 1.02 | 1.01 | 0.928 | 1.01 | 1.02 | 0.97 | 0.956 | 0.943 | 0.852 | 1.02 | 1.11 | 0.921 | 1.12 | 0.452 | 0.874 | 0.642 | 0.689 | 0.539 | 0.671 |
| IA-LM | 1.04 | 1.01 | 0.905 | 0.91 | 0.94 | 1.1 | 0.923 | 0.963 | 0.812 | 0.903 | 1.11 | 1.42 | 1.28 | 1.21 | 0.557 |  |  |  |  |  |
| LC-2-ad | 1.02 | 1.04 | 1.07 | 0.868 | 0.958 | 1.09 | 0.902 | 1.01 | 0.901 | 0.377 | 1.01 | 1.15 | 0.757 | 0.54 | 0.301 | 0.79 | 0.417 | 0.544 | 0.524 | 0.212 |
| LCLC-97TM1 | 1.07 | 0.966 | 1.2 | 0.868 | 0.852 | 1.17 | 0.886 | 0.994 | 0.613 | 0.538 | 0.702 | 1.15 | 0.739 | 0.398 | 0.267 | 0.94 | 0.679 | 0.772 | 0.658 | 0.717 |
| LCLC-103H | 1.04 | 1.02 | 1.09 | 0.87 | 0.986 | 1.1 | 0.933 | 1.06 | 0.941 | 1.02 | 1.1 | 1.08 | 0.937 | 0.693 | 0.519 | 0.518 | 0.447 | 0.481 | 0.397 | 0.465 |
| LK-2 | 1.02 | 1 | 1.1 | 1.06 | 0.966 | 1.24 | 0.8 | 0.993 | 0.982 | 0.503 | 1.24 | 1.06 | 0.872 | 0.651 | 0.279 | 0.255 | 0.226 | 0.386 | 0.241 | 0.237 |
| LOU-NH91 | 1.02 | 0.991 | 1.09 | 0.874 | 1.02 | 1.05 | 0.943 | 0.981 | 0.878 | 0.851 | 0.946 | 1 | 0.865 | 0.65 | 0.423 | 0.558 | 0.558 | 0.38 | 0.43 | 0.52 |
| LU99A | 1 | 0.966 | 1.02 | 0.788 | 0.892 | 1.1 | 0.909 | 0.989 | 0.919 | 0.437 | 0.892 | 0.893 | 0.625 | 0.489 | 0.251 | 0.509 | 0.522 | 0.619 | 0.356 | 0.366 |
| LXF-289 | 1.03 | 1.03 | 1.02 | 0.902 | 0.991 | 1 | 0.934 | 0.954 | 0.953 | 0.69 | 0.963 | 1.02 | 0.93 | 0.901 | 0.315 | 0.24 | 0.225 | 0.267 | 0.134 | 0.104 |
| NCI-H23 | 1.13 | 1.21 | 1.11 | 0.798 | 0.962 | 1.1 | 0.846 | 0.956 | 0.782 | 0.231 | 0.999 | 1.1 | 0.817 | 0.594 | 0.378 | 1.04 | 0.711 | 0.879 | 0.758 | 0.402 |
| NCI-H1299 | 0.993 | 1.04 | 0.963 | 0.859 | 0.997 | 1.03 | 0.977 | 0.991 | 1.01 | 1.07 | 1.03 | 1.02 | 0.762 | 0.799 | 0.727 |  |  |  |  |  |
| NCI-H1648 | 0.934 | 0.875 | 0.876 | 0.728 | 0.739 | 1.1 | 0.788 | 1.03 | 0.824 | 0.993 | 0.688 | 0.993 | 0.691 | 1.17 | 0.879 |  |  |  |  |  |
| NCI-H1703 | 1.19 | 1.2 | 1.01 | 0.788 | 0.958 | 1.24 | 0.728 | 0.911 | 0.647 | 0.832 | 0.945 | 0.749 | 0.591 | 0.272 | 0.151 |  |  |  |  |  |
